Source: PubChem BioAssay (NCI)
Values joined by “and” are separate entries in the source; they are usually repeats but may differ in a detail not shown here. Equal entries are not always repeated.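 In this assay, cells in 96-well plates receive the compound at five concentrations for 48 hours. Endpoints are linearly interpolated between the surrounding concentrations. At the GI50, growth is halved. At the TGI there is no net growth.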

Columns and labels:
Experiment in all cases: DTP human tumour cell line panel, 48 h
[1] = tested on: SK-MEL-28 melanoma
[2] = tested on: BT-549 breast
[3] = tested on: MDA-MB-231 breast
[4] = tested on: SN12C renal
[5] = tested on: COLO 205 colon
[6] = tested on: SR leukemia
[7] = tested on: SF-539 CNS
[8] = tested on: NCI-H226 lung
[9] = tested on: SNB-19 CNS
[10] = tested on: IGROV1 ovarian
[11] = tested on: 786-0 renal
[12] = tested on: HOP-92 NSCLC

| Compound | TGI [1] [µM] | TGI [2] [µM] | TGI [3] [µM] | TGI [4] [µM] | TGI [5] [µM] | TGI [6] [µM] | TGI [7] [µM] | TGI [8] | TGI [9] [µM] | TGI [10] [µM] | TGI [11] [µM] | TGI [12] | GI50 [1] [µM] | GI50 [5] [µM] | GI50 [12] [µM] | GI50 [8] [µM] | GI50 [9] [µM] |
| --- | --- | --- | --- | --- | --- | --- | --- | --- | --- | --- | --- | --- | --- | --- | --- | --- | --- |
| CCOP(=O)(OCC)[C@H](O)c1ccsc1 | > 100 | > 100 | > 100 | > 100 | > 100 | > 100 | > 100 | > 100 µM | > 100 | > 100 | > 100 | – | – | – | – | – | – |
| O=C1CC(c2ccco2)C2(C(=O)NC(=O)NC2=O)C(c2ccco2)C1 (centres undefined) | > 75 | > 75 | > 75 | > 75 | > 75 | > 75 | > 75 | – | > 75 | > 75 | > 75 | – | – | – | – | – | – |
| COc1ccc(-c2c(C#N)c(N)n(C3OC(CO)C(O)C(O)C3O)c(=S)c2C#N)cc1 (centres undefined) | > 100 | > 100 | > 100 | > 100 | – | > 100 | > 100 | > 100 µM | > 100 | > 100 | > 100 | > 100 µM | – | – | – | – | – |
| COc1ccc(N2C(=O)C3c4[nH]c5ccc([N+](=O)[O-])cc5c4C4CCC(C(C)(C)C)CC4C3C2=O)cc1 (centres undefined) | > 100 | > 100 | 36.5 | 76.9 | 69.6 | 8.56 | > 100 | 72.6 µM | > 100 | > 100 | 38 | 45.7 µM | – | – | – | – | – |
| CCOC(=O)c1sc2nc(SC)nc3c2c1N=CN3c1ccc(Br)cc1 | > 100 | > 100 | > 100 | > 100 | > 100 | > 100 | – | > 100 µM | > 100 | > 100 | > 100 | > 100 µM | – | – | – | – | – |
| COC(=O)C1(Cc2ccccc2)Cc2cc3c(cc2C1=O)CCC3 (centres undefined) | > 100 | > 100 | > 100 | > 100 | 39.5 | 47.2 | > 100 | 92.6 µM | > 100 | > 100 | > 100 | 42.3 µM | – | – | – | – | – |
| O=c1[nH]cnc2c(C3OC(CO)C(O)C3O)c[nH]c12 (centres undefined) | > 100 | > 100 | > 100 | > 100 | > 100 | > 100 | > 100 | > 100 µM | > 100 | > 100 | > 100 | > 100 µM | – | – | – | – | – |
| c1cc(-c2cnc(-c3ccc4c(c3)CCCO4)o2)ccn1 | 32.2 | 29.1 | 41 | 46.4 | 33.1 | 13.4 | 21.8 | 31.7 µM | 40.9 | 36.5 | 53 | 49.4 µM | – | – | – | – | – |
| O=c1[nH]c2nc3ccccc3c(=O)n2/c1=C/c1ccc(O)cc1 | > 100 | > 100 | > 100 | > 100 | > 100 | > 100 | 46.6 | > 100 µM | 51.3 | > 100 | > 100 | > 100 µM | – | – | – | – | – |
| Cc1ccc2c(c1C)CC1(Cc3c(ccc4c3CCC4)C1=O)C2=O (centres undefined) | > 100 | > 100 | > 100 | > 100 | > 100 | – | > 100 | > 100 µM | > 100 | > 100 | > 100 | > 100 µM | – | – | – | – | – |
| Cc1cc(-c2nc3ccccc3s2)ccc1NS(=O)(=O)O | > 100 | > 100 | > 100 | > 100 | > 11.9 | > 100 | > 100 | > 100 µM | > 100 | > 100 | > 100 | > 100 µM | – | – | – | – | – |
| c1ccc(C[P+]2(c3ccccc3)c3ccccc3-c3ccccc32)cc1 | > 100 | > 100 | > 100 | > 100 | > 100 | – | > 100 | > 100 µM | > 100 | > 100 | > 100 | > 100 µM | – | – | – | – | – |
| O=C(NS(=O)(=O)Nc1ccc(Cl)cc1)OCc1ccc(Cl)cc1Cl | 97.5 | 82.3 | 65.7 | 63 | 32.3 | > 100 | 40.6 | – | 48.4 | 52.8 | > 100 | 61.9 µM | – | – | – | – | – |
| COc1ccc2c(c1)c1c(n2CCN2CCOCC2)-c2ccccc2CC1 | > 100 | > 100 | > 100 | 69.8 | 30.8 | 43.7 | 71.3 | 48.9 µM | – | > 100 | 92.1 | > 100 µM | – | – | – | – | – |
| O=C1CC(C(O)CO)CC(=O)N1 (centres undefined) | > 100 | > 100 | > 100 | > 100 | – | > 100 | > 100 | > 100 µM | > 100 | > 100 | > 100 | > 100 µM | – | – | – | – | – |
| COC(=O)C1=C(C(=O)OC)C2OC1C1C2C2(C)C(C)=C(C)C1(C)S2=O (centres undefined) | 33.8 | 25.1 | > 55.7 | 31.1 | 13.8 | – | > 100 | 22.9 µM | 66.1 | 39.3 | 20.2 | 32.7 µM | – | – | – | – | – |
| CCOC(=O)c1cc2c([N+](=O)[O-])c(NC(C)=O)ccc2s1 | > 100 | > 100 | 83.9 | > 100 | > 100 | – | > 100 | 54.8 µM | > 100 | > 100 | > 100 | > 100 µM | – | – | – | – | – |
| CCN(CC)CCn1c2cc3c(cc2c(=O)c2cccnc21)OCCO3 | > 10 | > 10 | > 10 | > 10 | > 10 | > 10 | > 10 | – | > 10 | > 10 | > 10 | > 10 µM | – | – | – | – | – |
| CCCCCCCCCC[C@@H](O)[C@H]1CC[C@H]([C@H]2CC[C@H]([C@H](O)CCCCCCCCCC[C@@H]3CC(CC(C)=O)C(=O)O3)O2)O1 (some centres undefined) | > 50 | > 50 | > 50 | > 50 | > 29.5 | – | > 50 | 6.56 µM and > 50 µM | > 50 | > 50 | > 50 | 8.42 µM and > 50 µM | 5.26 | 6.71 | 2.41 | 1.43 | 1.08 |
